The structures appear in SMILES notation. Activity calls are given as the source filed them. No cut-off for these calls is given here.

Assay [1] deals with Epidermal growth factor receptor (Homo sapiens) (UniProt P00533). Nature of the assay: Induction of EGFR degradation in human HCC827 cells assessed as EGFR protein level measured after 72 hrs by Western blot assay. The format is cell-based.
The subject of assay [2] is HCC827. Kind of assay: Antiproliferative activity against human HCC827 cells assessed as cell viability measured after 72 hrs by CCK-8 assay. It counts as functional, cell-based.
Assay [3] concerns the target Epidermal growth factor receptor (Homo sapiens) (UniProt P00533). Nature of the assay: Induction of EGFR degradation in human HCC827 cells assessed as EGFR protein level measured after 72 hrs under normoxic condition by Western blot assay. It counts as functional, cell-based.
Assay [4] deals with HCC827. Kind of assay: Antiproliferative activity against human HCC827 cells assessed as cell viability measured after 72 hrs under hypoxic condition by CCK-8 assay. Particulars: HCC827, 72 h. The format is functional, cell-based.
For assay [5], the system named is HCC827. Nature of the assay: Antiproliferative activity against human HCC827 cells assessed as cell viability measured after 72 hrs in presence of NTR by CCK-8 assay. It counts as functional, cell-based. Particulars: HCC827, 72 h.
The test system of assay [6] is HCC827. Nature of the assay: Antiproliferative activity against human HCC827 cells assessed as reduction in cell viability measured after 72 hrs under normoxic condition by CCK-8 assay. The format is functional, cell-based. Particulars: HCC827, 72 h.
In assay [7] the target is von Hippel-Lindau disease tumor suppressor/Epidermal growth factor receptor (Homo sapiens) (UniProt P00533+P40337). Nature of the assay: Protac activity at VHL/EGFR in human HCC827 cells assessed as induction of EGFR degradation at 100 nM pretreated for 2 hrs with VHL-L followed by compound addition. The format is cell-based.
von Hippel-Lindau disease tumor suppressor/Epidermal growth factor receptor (Homo sapiens), sequence (P00533 25-1210 limits assumed): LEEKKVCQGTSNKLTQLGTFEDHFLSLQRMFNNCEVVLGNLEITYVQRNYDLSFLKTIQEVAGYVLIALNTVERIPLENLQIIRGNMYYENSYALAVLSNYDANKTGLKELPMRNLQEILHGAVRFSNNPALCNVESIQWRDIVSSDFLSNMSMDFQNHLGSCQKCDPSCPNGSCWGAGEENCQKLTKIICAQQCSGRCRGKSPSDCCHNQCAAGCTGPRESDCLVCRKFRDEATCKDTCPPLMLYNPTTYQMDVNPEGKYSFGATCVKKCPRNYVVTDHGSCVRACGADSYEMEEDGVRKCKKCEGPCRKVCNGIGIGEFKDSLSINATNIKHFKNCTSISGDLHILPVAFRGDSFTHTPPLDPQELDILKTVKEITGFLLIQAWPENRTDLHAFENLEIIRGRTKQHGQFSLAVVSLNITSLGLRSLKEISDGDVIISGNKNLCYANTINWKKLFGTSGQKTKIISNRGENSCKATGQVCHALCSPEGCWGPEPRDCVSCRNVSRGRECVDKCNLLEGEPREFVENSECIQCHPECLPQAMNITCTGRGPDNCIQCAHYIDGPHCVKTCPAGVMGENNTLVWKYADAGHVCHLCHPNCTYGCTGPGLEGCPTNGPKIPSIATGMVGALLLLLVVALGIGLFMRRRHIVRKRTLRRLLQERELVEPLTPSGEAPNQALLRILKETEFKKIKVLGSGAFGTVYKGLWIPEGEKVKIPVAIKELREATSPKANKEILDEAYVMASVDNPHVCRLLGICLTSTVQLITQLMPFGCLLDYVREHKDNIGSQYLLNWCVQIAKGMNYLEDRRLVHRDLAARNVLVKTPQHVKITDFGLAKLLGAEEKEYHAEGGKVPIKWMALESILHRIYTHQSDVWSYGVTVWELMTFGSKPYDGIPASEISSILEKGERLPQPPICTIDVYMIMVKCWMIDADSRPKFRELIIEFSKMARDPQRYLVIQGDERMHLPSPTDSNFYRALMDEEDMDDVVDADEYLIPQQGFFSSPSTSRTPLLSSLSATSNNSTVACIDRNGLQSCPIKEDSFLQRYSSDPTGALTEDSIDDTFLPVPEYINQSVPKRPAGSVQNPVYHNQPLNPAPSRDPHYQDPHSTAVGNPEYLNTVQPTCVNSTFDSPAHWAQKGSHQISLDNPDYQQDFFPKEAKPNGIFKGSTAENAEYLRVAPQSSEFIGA
von Hippel-Lindau disease tumor suppressor/Epidermal growth factor receptor (Homo sapiens), sequence (P40337 whole entry partner): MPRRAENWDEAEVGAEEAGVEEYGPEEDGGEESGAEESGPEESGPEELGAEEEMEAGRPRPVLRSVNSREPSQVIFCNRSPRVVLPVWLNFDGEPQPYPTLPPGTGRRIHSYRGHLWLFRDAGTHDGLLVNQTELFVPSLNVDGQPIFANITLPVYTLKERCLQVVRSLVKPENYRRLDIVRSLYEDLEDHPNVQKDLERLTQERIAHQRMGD

Epidermal growth factor receptor (Homo sapiens), sequence (P00533 whole entry): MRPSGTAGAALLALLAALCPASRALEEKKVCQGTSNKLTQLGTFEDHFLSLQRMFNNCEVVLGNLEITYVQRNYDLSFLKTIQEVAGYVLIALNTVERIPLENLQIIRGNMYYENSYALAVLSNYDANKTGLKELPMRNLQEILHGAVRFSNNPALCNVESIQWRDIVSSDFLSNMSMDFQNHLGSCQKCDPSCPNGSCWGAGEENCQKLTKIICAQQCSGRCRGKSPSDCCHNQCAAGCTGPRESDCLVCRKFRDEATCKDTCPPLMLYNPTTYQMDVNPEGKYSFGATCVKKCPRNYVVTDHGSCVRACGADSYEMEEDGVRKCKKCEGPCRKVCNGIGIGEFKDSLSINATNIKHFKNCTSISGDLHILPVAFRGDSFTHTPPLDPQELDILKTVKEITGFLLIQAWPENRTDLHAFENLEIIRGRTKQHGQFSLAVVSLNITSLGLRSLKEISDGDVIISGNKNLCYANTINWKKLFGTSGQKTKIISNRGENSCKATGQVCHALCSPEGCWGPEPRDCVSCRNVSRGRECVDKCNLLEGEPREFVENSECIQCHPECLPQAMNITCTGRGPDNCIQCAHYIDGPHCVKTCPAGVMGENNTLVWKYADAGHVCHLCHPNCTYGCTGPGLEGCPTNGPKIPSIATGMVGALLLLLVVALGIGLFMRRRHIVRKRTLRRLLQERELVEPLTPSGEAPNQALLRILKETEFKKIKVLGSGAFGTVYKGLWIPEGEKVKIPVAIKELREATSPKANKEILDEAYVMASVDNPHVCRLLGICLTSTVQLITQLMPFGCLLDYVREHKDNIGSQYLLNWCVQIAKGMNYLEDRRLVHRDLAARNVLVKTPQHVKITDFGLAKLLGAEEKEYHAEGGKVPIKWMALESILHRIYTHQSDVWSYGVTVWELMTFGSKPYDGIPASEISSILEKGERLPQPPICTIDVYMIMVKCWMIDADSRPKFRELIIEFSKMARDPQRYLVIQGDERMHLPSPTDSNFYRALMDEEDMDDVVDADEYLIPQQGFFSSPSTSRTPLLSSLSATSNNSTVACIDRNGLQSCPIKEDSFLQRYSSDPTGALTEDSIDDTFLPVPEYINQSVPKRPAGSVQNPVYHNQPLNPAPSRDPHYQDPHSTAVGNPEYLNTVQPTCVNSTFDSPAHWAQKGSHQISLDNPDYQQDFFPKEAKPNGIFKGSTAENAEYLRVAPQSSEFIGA

Turning to `Cc1ncsc1-c1ccc(CNC(=O)[C@@H]2C[C@@H](O)CN2C(=O)[C@@H](NC(=O)COCCOCCOCCn2cc(COc3cc4ncnc(Nc5ccc(F)c(Cl)c5)c4cc3NC(=O)/C=C/CN3CCCCC3)nn2)C(C)(C)C)cc1`, the result in assay [1], in assay [2] and in assay [3] was inactive.
As for `Cc1ncsc1-c1ccc(CNC(=O)[C@@H]2C[C@@H](O)CN2C(=O)[C@@H](NC(=O)COCCOCCn2cc(CCCCCOc3cc4ncnc(Nc5ccc(F)c(Cl)c5)c4cc3NC(=O)/C=C/CN3CCCCC3)nn2)C(C)(C)C)cc1`, the IC50 was found to be 18.7 nM in assay [4], 6 nM in assay [5] and 4 nM in assay [6]. In addition, the outcome in assay [7] was Active. For the same molecule, the Activity result in assay [3] was “Dose-Dependent Effect”.

Source of the values: ChEMBL document CHEMBL5046277, “Rational Design for Nitroreductase (NTR)-Responsive Proteolysis Targeting Chimeras (PROTACs) Selectively Targeting Tumor Tissues” (J Med Chem, 2022).
